Here are results for 8 compounds from paper PMC6152318 (Molecules : A Journal of Synthetic Chemistry and Natural …, 2017).

Data set [1] addresses T1, Human serum albumin (HSA) (Homo sapiens, UniProt P02768).
T1 construct: Fatty acid free HSA and warfarin sodium were purchased from Sigma-Aldrich; purchased Sigma-Aldrich (St. Louis, MO, USA)
Description: Binding constants by quenching of HSA tryptophan fluorescence. To be noted: for K ± S.D. (binding constant): 6 μM HSA, pH 7.4, 25 °C, excitation 295 nm, 1:1 binding model. The procedure: In all experiments, the final co-solvent concentration was held below 5%. This was done to prevent conformational changes of HSA due to changes in dielectric constant of the solvent.
Steady-state fluorescence was recorded using a thermostated Safas Xenius fluorometer (Safas Monaco, Monaco) with an integrated stirrer. All studies were performed at 25 ± 1 °C using 10 nm excitation and emission slit widths. […] Measurements were performed in duplicate.
A stock solution of a single ligand was gradually added via syringe to a 2 mL of a 6 μM HSA solution placed in a quartz cell. Measurements were conducted at the excitation wavelength of 295 nm and emission was recorded in the 310–400 nm range enabling calculations of corresponding binding constants. […] Binding constants were determined according to Dufour and Dangles. A Scatchard analysis was performed assuming n identical binding sites on HSA. Values for binding constant (K), molar fluorescence intensity of the complex (f), and the stoichiometric coefficient (n) were estimated by fitting the F vs. Lt curves against Equations (1) and (2) using a least-square regression program Scientist (MicroMath, Salt Lake City, UT, USA), where F is fluorescence intensity, [L] the free ligand concentration, [Lt] the total ligand concentration, and c the total albumin concentration. […] In all cases, the inner filter effect was taken into account by using absorption of free ligands at excitation and emission wavelengths (εex and εem, respectively) (Equation (3)), where Fcorr is the fluorescence corrected for the inner filter effect, F0 is the measured fluorescence, ε is the sum of εex and εem, l = 0.65 is the optical path and c is the flavonoid concentration. (1) Fcorr=fcnK[L]/1+K[L] (2) [Lt]=[L](1+ncK/1+K[L]) (3) F0=Fcorr×10^−εlc

Data set [2] addresses Human serum albumin (HSA) IIA binding site (Homo sapiens, UniProt P02768). Briefly: Flavonoid fluorescence (excitation 450 nm) on HSA pre-saturated with warfarin (simultaneous binding / displacement). The procedure:
HSA was freshly dissolved in Dulbecco’s phosphate-buffered saline pH 7.4 (137 mM sodium chloride, 2.7 mM potassium chloride, 8.1 mM disodium hydrogen phosphate, 1.47 mM potassium dihydrogen phosphate) immediately before measurements. […]. In all experiments, the final co-solvent concentration was held below 5%. This was done to prevent conformational changes of HSA due to changes in dielectric constant of the solvent.
Steady-state fluorescence was recorded using a thermostated Safas Xenius fluorometer (Safas Monaco, Monaco) with an integrated stirrer. All studies were performed at 25 ± 1 °C using 10 nm excitation and emission slit widths. […] Higher concentrations of HSA and ligands were not used due to poor solubility of ligands and high influence of ligand absorption. Measurements were performed in duplicate.

Data set [3] has as its system HSA. To be noted: of its intensity without warfarin; cited from earlier work.
Data set [4] in a line: Flavonoid fluorescence in buffer solution without HSA.
Data set [5] concerns HSA. To be noted: cited from earlier work.
[6] abbreviates: HSA 0-92% saturated with warfarin.

Human serum albumin (HSA) IIA binding site, sequence (P02768 25-609): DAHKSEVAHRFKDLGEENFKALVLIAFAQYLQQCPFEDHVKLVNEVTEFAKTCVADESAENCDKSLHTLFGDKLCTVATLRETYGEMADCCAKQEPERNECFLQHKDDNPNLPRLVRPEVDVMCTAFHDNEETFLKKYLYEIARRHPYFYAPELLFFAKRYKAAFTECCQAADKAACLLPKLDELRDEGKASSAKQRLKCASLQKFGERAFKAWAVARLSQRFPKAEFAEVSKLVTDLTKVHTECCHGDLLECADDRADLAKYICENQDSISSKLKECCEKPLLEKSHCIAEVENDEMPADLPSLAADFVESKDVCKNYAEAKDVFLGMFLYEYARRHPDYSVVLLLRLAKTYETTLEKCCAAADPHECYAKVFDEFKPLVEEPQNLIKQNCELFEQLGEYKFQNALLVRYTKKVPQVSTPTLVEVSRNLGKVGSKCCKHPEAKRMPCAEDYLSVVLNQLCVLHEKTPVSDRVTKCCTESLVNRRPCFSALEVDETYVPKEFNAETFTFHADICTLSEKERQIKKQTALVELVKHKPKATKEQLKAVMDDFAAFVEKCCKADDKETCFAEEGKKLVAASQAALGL
T1 sequence (P02768 25-609): as above

Consider `O=C(O)[C@H]1O[C@@H](Oc2c(-c3ccc(O)c(O)c3)oc3cc(O)cc(O)c3c2=O)[C@H](O)[C@@H](O)[C@@H]1O`, for which the “K ± S.D. (binding constant)” value in data set [1] is listed as 5.36 ± 0.13 × 10^4 M^−1.
As for `O=c1cc(-c2ccc(O)c(O)c2)oc2cc(O[C@@H]3O[C@H](CO)[C@@H](O)[C@H](O)[C@H]3O)cc(O)c12` [Cynaroside], in data set [1], the “K ± S.D. (binding constant)” value is reported as 4.20 ± 0.25 × 10^4 M^−1.
As usually defined, the Kd is the free concentration of one partner at which half of the binding sites on the other are occupied at equilibrium, for simple one-to-one binding. Low readings indicate tighter binding, high ones weaker binding. Consider `O=c1c(O[C@@H]2O[C@H](CO)[C@H](O)[C@H](O)[C@H]2O)c(-c2ccc(O)c(O)c2)oc2cc(O)cc(O)c12` [Hyperoside], for which the Kd in data set [1] was 30.9 µM.
In turn, `O=c1cc(-c2ccc(O)c(O)c2)oc2cc(O)c([C@@H]3O[C@H](CO)[C@@H](O)[C@H](O)[C@H]3O)c(O)c12` [Isoorientin] had a Kd in data set [1] of 21.9 µM.
As to `O=c1c(O[C@@H]2O[C@H](CO)[C@@H](O)[C@H](O)[C@H]2O)c(-c2ccc(O)c(O)c2)oc2cc(O)cc(O)c12` [Isoquercitrin], the Kd in data set [1] was 22.4 µM.
In data set [1], `O=c1c(O)c(-c2ccc(O)c(O)c2)oc2cc(O)cc(O)c12` [Quercetin] gave a Kd of 6.94 µM. In addition, the “Effect of warfarin on flavonoid Fmax (maximum fluorescence)” value in data set [2] (setting [6]) is “slightly decreased”. Further, the “Effect of warfarin on flavonoid cmax (concentration needed to achieve Fmax)” value in data set [2] (setting [6]) was “slight increase”. Besides, the Absolute fluorescence intensity in data set [2] (flavonoid 2,00 uM, 0% occupied HSA) was 14,1006; in data set [2] (flavonoid 2,00 uM, 22% occupied HSA) it was 14,3985; in data set [2] (flavonoid 2,00 uM, 38% occupied HSA), 15,6001; in data set [2] (flavonoid 2,00 uM, 63% occupied HSA), 14,9774; in data set [2] (flavonoid 2,00 uM, 92% occupied HSA), 12,2760; in data set [2] (flavonoid 4,00 uM, 0% occupied HSA), 18,1924. The Absolute fluorescence intensity in data set [2] (flavonoid 4,00 uM, 22% occupied HSA) is 19,1798; in data set [2] (flavonoid 4,00 uM, 38% occupied HSA), 20,1073; in data set [2] (flavonoid 4,00 uM, 63% occupied HSA), 20,0687; in data set [2] (flavonoid 4,00 uM, 92% occupied HSA) it was 16,0796; in data set [2] (flavonoid 6,00 uM, 0% occupied HSA), 21,7864; in data set [2] (flavonoid 6,00 uM, 22% occupied HSA), 22,8342. For the same compound, the Absolute fluorescence intensity in data set [2] (flavonoid 6,00 uM, 38% occupied HSA) is 23,2658; in data set [2] (flavonoid 6,00 uM, 63% occupied HSA) it was 23,0451; in data set [2] (flavonoid 6,00 uM, 92% occupied HSA), 18,9492; in data set [2] (flavonoid 7,99 uM, 0% occupied HSA) it was 25,2012; in data set [2] (flavonoid 7,99 uM, 22% occupied HSA) it was 26,8970; in data set [2] (flavonoid 7,99 uM, 38% occupied HSA), 26,0412. The Absolute fluorescence intensity is 25,4057 in data set [2] (flavonoid 7,99 uM, 63% occupied HSA); 21,2821 in data set [2] (flavonoid 7,99 uM, 92% occupied HSA); 30,3340 in data set [2] (flavonoid 11,98 uM, 0% occupied HSA); 31,0510 in data set [2] (flavonoid 11,98 uM, 22% occupied HSA); 30,0611 in data set [2] (flavonoid 11,98 uM, 38% occupied HSA); 29,3172 in data set [2] (flavonoid 11,98 uM, 63% occupied HSA). The Absolute fluorescence intensity in data set [2] (flavonoid 11,98 uM, 92% occupied HSA) is recorded as 25,1156; in data set [2] (flavonoid 15,97 uM, 0% occupied HSA), 33,9655; in data set [2] (flavonoid 15,97 uM, 22% occupied HSA) it was 33,9646; in data set [2] (flavonoid 15,97 uM, 38% occupied HSA), 33,4123; in data set [2] (flavonoid 15,97 uM, 63% occupied HSA), 32,2916; in data set [2] (flavonoid 15,97 uM, 92% occupied HSA) it was 28,2109. Besides, the Absolute fluorescence intensity is 38,4893 in data set [2] (flavonoid 23,93 uM, 0% occupied HSA); 37,6942 in data set [2] (flavonoid 23,93 uM, 22% occupied HSA); 37,3757 in data set [2] (flavonoid 23,93 uM, 38% occupied HSA); 36,2415 in data set [2] (flavonoid 23,93 uM, 63% occupied HSA); 32,2392 in data set [2] (flavonoid 23,93 uM, 92% occupied HSA); 40,5581 in data set [2] (flavonoid 31,87 uM, 0% occupied HSA). Also, the Absolute fluorescence intensity was 39,7022 in data set [2] (flavonoid 31,87 uM, 22% occupied HSA); 39,4192 in data set [2] (flavonoid 31,87 uM, 38% occupied HSA); 37,9878 in data set [2] (flavonoid 31,87 uM, 63% occupied HSA); 34,7552 in data set [2] (flavonoid 31,87 uM, 92% occupied HSA); 41,9281 in data set [2] (flavonoid 39,80 uM, 0% occupied HSA); 41,0854 in data set [2] (flavonoid 39,80 uM, 22% occupied HSA). In addition, the Absolute fluorescence intensity in data set [2] (flavonoid 39,80 uM, 38% occupied HSA) is 41,0246; in data set [2] (flavonoid 39,80 uM, 63% occupied HSA), 39,4685; in data set [2] (flavonoid 39,80 uM, 92% occupied HSA), 36,6753; in data set [2] (flavonoid 47,71 uM, 0% occupied HSA), 41,6617; in data set [2] (flavonoid 47,71 uM, 22% occupied HSA), 41,5821; in data set [2] (flavonoid 47,71 uM, 38% occupied HSA), 41,3733. In addition, the Absolute fluorescence intensity in data set [2] (flavonoid 47,71 uM, 63% occupied HSA) was 40,4449; in data set [2] (flavonoid 47,71 uM, 92% occupied HSA) it was 37,3158; in data set [2] (flavonoid 63,49 uM, 0% occupied HSA), 40,9892; in data set [2] (flavonoid 63,49 uM, 22% occupied HSA), 40,4660; in data set [2] (flavonoid 63,49 uM, 38% occupied HSA) it was 40,7086; in data set [2] (flavonoid 63,49 uM, 63% occupied HSA), 39,7702. The Absolute fluorescence intensity is 38,0617 in data set [2] (flavonoid 63,49 uM, 92% occupied HSA); 39,3310 in data set [2] (flavonoid 79,21 uM, 0% occupied HSA); 39,3997 in data set [2] (flavonoid 79,21 uM, 22% occupied HSA); 39,3849 in data set [2] (flavonoid 79,21 uM, 38% occupied HSA); 38,8686 in data set [2] (flavonoid 79,21 uM, 63% occupied HSA); 37,3045 in data set [2] (flavonoid 79,21 uM, 92% occupied HSA). The Absolute fluorescence intensity is reported as 37,4633 in data set [2] (flavonoid 98,77 uM, 0% occupied HSA); 37,3641 in data set [2] (flavonoid 98,77 uM, 22% occupied HSA); 37,6865 in data set [2] (flavonoid 98,77 uM, 38% occupied HSA); 37,3324 in data set [2] (flavonoid 98,77 uM, 63% occupied HSA); 36,3823 in data set [2] (flavonoid 98,77 uM, 92% occupied HSA); 0,8077 in data set [4] (flavonoid 2,00 uM). Besides, the Absolute fluorescence intensity in data set [4] (flavonoid 4,00 uM) was 0,9540; in data set [4] (flavonoid 7,99 uM), 1,1279; in data set [4] (flavonoid 15,97 uM), 1,3080; in data set [4] (flavonoid 31,87 uM) it was 1,5574; in data set [4] (flavonoid 47,71 uM), 1,7477; in data set [4] (flavonoid 63,49 uM), 2,0820. The Absolute fluorescence intensity in data set [4] (flavonoid 79,21 uM) is on record as 2,2472; in data set [4] (flavonoid 98,77 uM), 2,4600. In data set [3], the “Relative STD-NMR signal intensity in presence of warfarin” value was ~ 40%.
For the compound `C[C@@H]1O[C@@H](OC[C@H]2O[C@@H](Oc3c(-c4ccc(O)c(O)c4)oc4cc(O)cc(O)c4c3=O)[C@H](O)[C@@H](O)[C@@H]2O)[C@H](O)[C@H](O)[C@H]1O` [Rutin], the dissociation constant (Kd) in data set [1] was 34.2 µM.
Regarding `CC(=O)CC(c1ccccc1)c1c(O)c2ccccc2oc1=O` (stereo not shown) [Warfarin], the “Fraction of warfarin in blood bound to HSA” value in data set [5] was over 99%.
